Consider 14 compounds from PubChem BioAssay (NCI).

Assay in all cases: NCI tumour cell line growth inhibition, 48 h
For experiment [1], the system named is ACHN renal.
Experiment [2] concerns MOLT-4 leukemia.
For experiment [3], the system named is UACC-257 melanoma.
In experiment [4] the test system is CAKI-1 renal.
In experiment [5] the test system is SF-295 CNS.
Experiment [6] relates to HT29 colon.
The subject of experiment [7] is SK-MEL-2 melanoma.
Experiment [8] concerns OVCAR-5 ovarian.
The subject of experiment [9] is COLO 205 colon.

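Briefly, cells in 96-well plates were exposed to five compound concentrations for 48 h, and endpoints were estimated by linear interpolation. At the GI50, growth is halved. At the TGI there is no net growth.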

Regarding `Cc1cc(=O)n(-c2ccccc2)c(=O)o1`, the TGI in [1], in experiment [2], in experiment [3], in experiment [4], in experiment [5] and in experiment [6] was more than 100 µM in each case. In addition, the TGI in [7], in experiment [8] and in experiment [9] was more than 100 µM throughout.

Regarding `COC(=O)[C@H]1[C@H]2C[C@@H]3c4[nH]c5cc(OC)ccc5c4CCN3C[C@H]2C[C@@H](OC(=O)c2cc(OC)c(OC)c(OC)c2)[C@@H]1OC`, the TGI in [1] was more than 100 µM; in experiment [2], 50.6 µM; in [3], 42.1 µM; in experiment [4], 36 µM; in [5], 37.7 µM; in experiment [6], 29.8 µM. The results for the TGI in [7], in experiment [8] and in experiment [9] were 38.1 µM, more than 100 µM and 33.6 µM, respectively.

Regarding `O=C(c1ccccc1)C(c1ccccc1)C1(O)C(=O)Nc2ccccc21` (configuration not stated), the TGI in experiment [1], in experiment [2], in [3], in [4], in experiment [5] and in [6] was more than 100 µM in each case. Besides, the TGI in [7], in [8] and in experiment [9] was more than 100 µM throughout.

As to `[N-]=[N+]=Nc1ccc(CCN2CCN(c3cccc(C(F)(F)F)c3)CC2)cc1I`, the TGI in experiment [1], in [2], in experiment [3], in experiment [4], in [5] and in experiment [6] was more than 100 µM throughout. Further, the TGI in experiment [7], in experiment [8] and in experiment [9] was more than 100 µM each time.

For `CC1(C)C(c2ccccc2)C12CCC1(C2=O)C(c2ccccc2)C1(C)C` (configuration not stated), the TGI was determined as 39 µM in [1]; 37.2 µM in [2]; 37.4 µM in [3]; 60.3 µM in experiment [4]; 47.2 µM in [5]; 35 µM in experiment [6]. Also, the TGI was 37 µM in [7], 81.8 µM in experiment [8] and 33.6 µM in experiment [9].

With `CN1C(OCc2ccccc2)c2c(ccc3c2OCO3)C2C=Cc3cc4c(cc3C21)OCO4` (configuration not stated), the TGI in experiment [1] was found to be 2.83 µM; in experiment [2], 0.678 µM; in experiment [3], 2.68 µM; in experiment [4] it was 2.2 µM; in experiment [5], 2.81 µM; in experiment [6], 1.47 µM. Moreover, the TGI in experiment [7] turned out to be 2.92 µM; in experiment [8], 2.86 µM; in [9], 2.2 µM.

For the compound `C[C@@H](C1CCC2C3C(=CC(=O)[C@@]21C)[C@H](C)[C@]1(CCC(=O)O1)C1OC31)[C@H]1C[C@]2(C)O[C@@](C)(O1)OC2(C)C` (some centres not stated), the TGI in experiment [1], in experiment [2], in experiment [4], in [5], in experiment [6] and in [9] was more than 100 µM throughout.

Regarding `CCCN(CCCN)/[N+]([O-])=N\O`, the TGI in experiment [1], in experiment [2], in experiment [3], in experiment [4], in experiment [5] and in [6] was more than 100 µM each time. Also, the TGI in experiment [7], in [8] and in [9] was more than 100 µM each time.

With `COc1c(C2=NC(C(C)C)CO2)ccc2ccccc12` (configuration not stated), the TGI in experiment [1] was more than 100 µM; in experiment [2], 50.3 µM; in experiment [3] it was more than 100 µM; in experiment [4], more than 100 µM; in [5], more than 100 µM; in experiment [6] it was more than 100 µM. The TGI in experiment [7], in [8] and in experiment [9] was more than 100 µM in each case.

In the case of `O=[N+]([O-])c1cc([N+](=O)[O-])c(Cl)c(Cl)c1Cl`, the GI50 is 1.04 µM in experiment [1]; 0.831 µM in [2]; 1.43 µM in experiment [3]; 8.15 µM in experiment [5]; 0.477 µM in [6]; 1.76 µM in experiment [7]. Further, the GI50 in [9] was 0.616 µM. For the same compound, the TGI is 2.3 µM in experiment [1]; 5.82 µM in experiment [2]; 2.83 µM in experiment [3]; 23.1 µM in [5]; 1.99 µM in experiment [6]; 3.42 µM in [7]. In addition, the TGI in experiment [9] came out at 2.03 µM.

With `CC(C)N(C(=O)C12C3C4C5C3C1(C(=O)N(C(C)C)C(C)C)C5(C#N)C42)C(C)C` (configuration not stated), the TGI in [1], in experiment [2], in [3], in experiment [4], in experiment [5] and in [6] was more than 100 µM in each case. Besides, the TGI in experiment [7], in [8] and in experiment [9] was more than 100 µM throughout.

As for `O=C1c2ccccc2C(=O)C2C1C1C(=O)c3ccccc3C(=O)C21` (configuration not stated), the TGI in experiment [1], in [3], in experiment [4], in [5], in experiment [6] and in experiment [7] was more than 100 µM in each case. Also, the TGI in experiment [8] and in [9] was more than 100 µM throughout.

As for `N=CCCN(CCC=N)c1ccc(/C=C2\CN(NC(=O)c3ccc(Cl)cc3)C(c3ccccc3)=N2)cc1`, the TGI in experiment [1], in experiment [2], in experiment [3], in [4], in experiment [5] and in experiment [6] was more than 100 µM each time. For the same compound, the TGI in experiment [7], in [8] and in experiment [9] was more than 100 µM each time.

`CC(C)(C)N/N=C(\Cc1occc(=O)c1O)C(=O)Nc1ccc([N+](=O)[O-])cc1[N+](=O)[O-]`: the TGI in [1], in [2], in experiment [3], in experiment [4], in experiment [5] and in experiment [6] was more than 100 µM in each case. For the same compound, the TGI in experiment [7], in experiment [8] and in [9] was more than 100 µM each time.
